Reference: PubChem BioAssay AID2060496 (Molecular Pharmacology Branch, DTP, NCI, 2025)

System: 276233-004-R-J1-PDC complex spheroid viability
Assay: Anticancer human tumor 276233-004-R-J1-PDC patient-derived colon adenocarcinoma cell line growth inhibition [GQUAD]
Conditions: for IC50: curve of first compound; for viability, T/C: stronger effect = lower value
Summary of the method: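 Tumor cells were grown as complex spheroids with HUVEC endothelial cells and mesenchymal stem cells as stroma. G-quadruplex stabilizers were combined with targeted agents over half-log dilutions from near the clinical Cmax, or from 10 microM.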

[1] = second compound 0.0316 µM, first compound 0.0316 µM
[2] = second compound 0.0316 µM, first compound 0.1 µM
[3] = second compound 0.0316 µM, first compound 0.316 µM
[4] = second compound 0.0316 µM, first compound 1 µM
[5] = second compound 0.0316 µM, first compound 3.16 µM
[6] = second compound 0.0316 µM, first compound 10 µM
[7] = second compound 0.1 µM, first compound 0.0316 µM
[8] = second compound 0.1 µM, first compound 0.1 µM
[9] = second compound 0.1 µM, first compound 0.316 µM
[10] = second compound 0.1 µM, first compound 1 µM
[11] = second compound 0.1 µM, first compound 3.16 µM
[12] = second compound 0.1 µM, first compound 10 µM
[13] = second compound 0.316 µM, first compound 0.0316 µM
[14] = second compound 0.316 µM, first compound 0.1 µM
[15] = second compound 0.316 µM, first compound 0.316 µM
[16] = second compound 0.316 µM, first compound 1 µM
[17] = second compound 0.316 µM, first compound 3.16 µM
[18] = second compound 0.316 µM, first compound 10 µM
[19] = second compound 1 µM, first compound 0.0316 µM
[20] = second compound 1 µM, first compound 0.1 µM
[21] = second compound 1 µM, first compound 0.316 µM
[22] = second compound 1 µM, first compound 1 µM
[23] = second compound 1 µM, first compound 3.16 µM
[24] = second compound 1 µM, first compound 10 µM
[25] = second compound 3.16 µM, first compound 0.0316 µM
[26] = second compound 3.16 µM, first compound 0.1 µM
[27] = second compound 3.16 µM, first compound 0.316 µM
[28] = second compound 3.16 µM, first compound 1 µM
[29] = second compound 3.16 µM, first compound 3.16 µM
[30] = second compound 3.16 µM, first compound 10 µM
[31] = second compound 10 µM, first compound 0.0316 µM
[32] = second compound 10 µM, first compound 0.1 µM
[33] = second compound 10 µM, first compound 0.316 µM
[34] = second compound 10 µM, first compound 1 µM
[35] = second compound 10 µM, first compound 3.16 µM
[36] = second compound 10 µM, first compound 10 µM
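Also: spheroids exposed to drugs for seven days.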
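For viability, T/C in this document: 100% = DMSO vehicle control viability.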

COc1ncnc(C2CC2)c1-c1ncc2cnn(Cc3ccc(-c4nc(C(F)(F)F)cn4C(C)C)cc3)c2n1 + CN(C)c1ccc(Nc2c3ccc(NC(=O)CCN4CCCC4)cc3nc3cc(NC(=O)CCN4CCCC4)ccc23)cc1
IC50 (second compound 0.0316 µM): > 10000 nM
IC50 (second compound 0.1 µM): > 10000 nM
IC50 (second compound 0.316 µM): > 10000 nM
IC50 (second compound 1 µM): 31.6 nM
IC50 (second compound 3.16 µM): < 31.6 nM
IC50 (second compound 10 µM): < 31.6 nM
viability, T/C [1]: 87.4%
viability, T/C [2]: 84.2%
viability, T/C [3]: 74.3%
viability, T/C [4]: 75.6%
viability, T/C [5]: 68.8%
viability, T/C [6]: 100%
viability, T/C [7]: 70.4%
viability, T/C [8]: 90.2%
viability, T/C [9]: 77.5%
viability, T/C [10]: 75.8%
viability, T/C [11]: 58.6%
viability, T/C [12]: 65.8%
viability, T/C [13]: 69.4%
viability, T/C [14]: 72.7%
viability, T/C [15]: 59.9%
viability, T/C [16]: 44%
viability, T/C [17]: 69.4%
viability, T/C [18]: 72.5%
viability, T/C [19]: 57.3%
viability, T/C [20]: 49.6%
viability, T/C [21]: 51.4%
viability, T/C [22]: 47%
viability, T/C [23]: 65.3%
viability, T/C [24]: 68.5%
viability, T/C [25]: 53.2%
viability, T/C [26]: 35.7%
viability, T/C [27]: 53.1%
viability, T/C [28]: 49.5%
viability, T/C [29]: 56.7%
viability, T/C [30]: 57.6%
viability, T/C [31]: 35.6%
viability, T/C [32]: 41.8%
viability, T/C [33]: 36.7%
viability, T/C [34]: 38.4%
viability, T/C [35]: 58.4%
viability, T/C [36]: 53.5%

CC1COCCN1c1cc(-c2ccnn2C)c2ccnc(-c3ccn[nH]3)c2n1 (stereo unspecified) + CN(C)c1ccc(Nc2c3ccc(NC(=O)CCN4CCCC4)cc3nc3cc(NC(=O)CCN4CCCC4)ccc23)cc1
IC50 (second compound 0.0316 µM): 7140 nM
IC50 (second compound 0.1 µM): 6120 nM
IC50 (second compound 0.316 µM): 513 nM
IC50 (second compound 1 µM): 109 nM
IC50 (second compound 3.16 µM): 145 nM
IC50 (second compound 10 µM): < 31.6 nM
viability, T/C [1]: 83.7%
viability, T/C [2]: 77.8%
viability, T/C [3]: 74.8%
viability, T/C [4]: 73.1%
viability, T/C [5]: 55%
viability, T/C [6]: 47.9%
viability, T/C [7]: 80.4%
viability, T/C [8]: 70%
viability, T/C [9]: 76.6%
viability, T/C [10]: 69.9%
viability, T/C [11]: 56.3%
viability, T/C [12]: 44.1%
viability, T/C [13]: 77.9%
viability, T/C [14]: 61.6%
viability, T/C [15]: 51.6%
viability, T/C [16]: 52.5%
viability, T/C [17]: 35.3%
viability, T/C [18]: 40.3%
viability, T/C [19]: 52.9%
viability, T/C [20]: 54.1%
viability, T/C [21]: 44.7%
viability, T/C [22]: 40.5%
viability, T/C [23]: 38.2%
viability, T/C [24]: 34.4%
viability, T/C [25]: 58.5%
viability, T/C [26]: 56%
viability, T/C [27]: 42.6%
viability, T/C [28]: 40.5%
viability, T/C [29]: 40.4%
viability, T/C [30]: 35.5%
viability, T/C [31]: 46.2%
viability, T/C [32]: 40.1%
viability, T/C [33]: 33.8%
viability, T/C [34]: 32.6%
viability, T/C [35]: 39.8%
viability, T/C [36]: 27.8%

Cc1[nH]c2ccccc2c1CCNCc1ccc(/C=C/C(=O)NO)cc1 + CN(C)c1ccc(Nc2c3ccc(NC(=O)CCN4CCCC4)cc3nc3cc(NC(=O)CCN4CCCC4)ccc23)cc1
IC50 (second compound 0.0316 µM): 178 nM
IC50 (second compound 0.1 µM): 169 nM
IC50 (second compound 0.316 µM): 166 nM
IC50 (second compound 1 µM): 47.7 nM
IC50 (second compound 3.16 µM): < 0.999 nM
IC50 (second compound 10 µM): < 0.999 nM
viability, T/C (second compound 0.0316 µM, first compound 0.000999 µM): 99.1%
viability, T/C (second compound 0.0316 µM, first compound 0.00316 µM): 79%
viability, T/C (second compound 0.0316 µM, first compound 0.00999 µM): 80.2%
viability, T/C [1]: 84%
viability, T/C (second compound 0.0316 µM, first compound 0.0999 µM): 77.5%
viability, T/C [3]: 23.2%
viability, T/C (second compound 0.1 µM, first compound 0.000999 µM): 87.7%
viability, T/C (second compound 0.1 µM, first compound 0.00316 µM): 90.7%
viability, T/C (second compound 0.1 µM, first compound 0.00999 µM): 60.1%
viability, T/C [7]: 71.3%
viability, T/C (second compound 0.1 µM, first compound 0.0999 µM): 79%
viability, T/C [9]: 17.2%
viability, T/C (second compound 0.316 µM, first compound 0.000999 µM): 57.8%
viability, T/C (second compound 0.316 µM, first compound 0.00316 µM): 78.7%
viability, T/C (second compound 0.316 µM, first compound 0.00999 µM): 59.6%
viability, T/C [13]: 50%
viability, T/C (second compound 0.316 µM, first compound 0.0999 µM): 85%
viability, T/C [15]: 29.6%
viability, T/C (second compound 1 µM, first compound 0.000999 µM): 58.2%
viability, T/C (second compound 1 µM, first compound 0.00316 µM): 54.2%
viability, T/C (second compound 1 µM, first compound 0.00999 µM): 47.9%
viability, T/C [19]: 64.3%
viability, T/C (second compound 1 µM, first compound 0.0999 µM): 38.9%
viability, T/C [21]: 21.8%
viability, T/C (second compound 3.16 µM, first compound 0.000999 µM): 45.3%
viability, T/C (second compound 3.16 µM, first compound 0.00316 µM): 47.9%
viability, T/C (second compound 3.16 µM, first compound 0.00999 µM): 42.6%
viability, T/C [25]: 40.3%
viability, T/C (second compound 3.16 µM, first compound 0.0999 µM): 28.1%
viability, T/C [27]: 8.05%
viability, T/C (second compound 10 µM, first compound 0.000999 µM): 29.1%
viability, T/C (second compound 10 µM, first compound 0.00316 µM): 39.6%
viability, T/C (second compound 10 µM, first compound 0.00999 µM): 38.8%
viability, T/C [31]: 29.3%
viability, T/C (second compound 10 µM, first compound 0.0999 µM): 34%
viability, T/C [33]: 3.25%
